Experimental data taken from patent US20090312406A1, “COUMARIN COMPOUNDS AND THEIR USE FOR TREATING VIRAL INFECTION” (priority 2008, published 2009).

tested on: Influenza A/WSN/33 (H1N1) virus; assay: In vitro anti-influenza virus assay (neutralization test), cytopathic effect on MDCK cells; type: cell-based; conditions: MDCK cells, 72 h, lower bound (10 nM), upper in μM, read-out: IC50 (concentration reducing virus-induced cytopathic effect by 50%)
Protocol: Anti-influenza activities of the coumarin compounds were evaluated by measuring the ability of a test compound to inhibit the cytopathic effect induced by an influenza virus on MDCK cells. The 96-well tissue culture plates were seeded with 200 μL of MDCK cells at a concentration of 1.1×10^5 cells/mL in DMEM with 10% fetal bovine serum (FBS). The plates were incubated for 24-30 h at 37° C. and were used at about 90% confluency. Influenza A/WSN/33 (H1N1) virus (100 TCID50) was added to the cells and incubated at 35° C. for 1 h. After adsorption, the infected cell plates were overlaid with 50 μL of DMEM plus 2% FBS and a test compound with different concentrations. The plate was incubated at 35° C. for 72 h. At the end of incubation, the plates were fixed by the addition of 100 μL of 4% formaldehyde for 1 h at room temperature. After the removal of formaldehyde, the plates were stained with 0.1% crystal violet for 15 min at room temperature. The plates were washed and dried, and the density of the well was measured at 570 nm. The concentration required for a test compound to reduce the virus-induced cytopathic effect (CPE) by 50% relative to the virus control was expressed as IC50.
Compounds 1 and 95 were also tested on various influenza virus strains. Amantadine or Relenza was also tested for comparison. IC50 is defined as the concentration required for a test compound to reduce the virus-induced cytopathic effect (CPE) by 50% relative to the virus control.

Structure (SMILES)	IC50
Cc1c(C)c2ccc3oc(C(=O)c4ccccc4)c(-c4ccccc4)c3c2oc1=O [Compound 6]	10 to 999 nM
CCc1cc(=O)oc2c1ccc1oc(C(=O)c3ccccc3)c(-c3ccccc3)c12 [Compound 9]	10 to 999 nM
O=C(c1ccccc1)c1oc2ccc3c(C(F)(F)F)cc(=O)oc3c2c1-c1ccccc1 [Compound 11]	10 to 999 nM
CCCc1cc(=O)oc2c1ccc1oc(C(=O)c3ccccc3)c(-c3ccccc3)c12 [Compound 14]	10 to 999 nM
O=C(c1ccccc1)c1oc2ccc3c4c(c(=O)oc3c2c1-c1ccccc1)CCC4 [Compound 20]	10 to 999 nM
Cc1cc(=O)oc2c1ccc1sc(C(=O)c3ccccc3)c(-c3ccccc3)c12 [Compound 26]	10 to 999 nM
COc1ccccc1C(=O)c1oc2ccc3c(C)cc(=O)oc3c2c1-c1ccccc1 [Compound 30]	10 to 999 nM
COc1cccc(C(=O)c2oc3ccc4c(C)cc(=O)oc4c3c2-c2ccccc2)c1 [Compound 31]	10 to 999 nM
Cc1cc(=O)oc2c1ccc1oc(C(=O)c3cccc(C(F)(F)F)c3)c(-c3ccccc3)c12 [Compound 36]	10 to 999 nM
Cc1cccc(C(=O)c2oc3ccc4c(C)cc(=O)oc4c3c2-c2ccccc2)c1 [Compound 40]	10 to 999 nM
Cc1ccc(C(=O)c2oc3ccc4c(C)cc(=O)oc4c3c2-c2ccccc2)cc1 [Compound 41]	10 to 999 nM
Cc1cc(=O)oc2c1ccc1oc(C(=O)c3ccccc3F)c(-c3ccccc3)c12 [Compound 44]	10 to 999 nM
Cc1cc(=O)oc2c1ccc1oc(C(=O)c3ccc(F)cc3)c(-c3ccccc3)c12 [Compound 46]	10 to 999 nM
Cc1cc(=O)oc2c1ccc1oc(C(=O)c3ccccc3Cl)c(-c3ccccc3)c12 [Compound 47]	10 to 999 nM
Cc1cc(=O)oc2c1ccc1oc(C(=O)c3cccc(Cl)c3)c(-c3ccccc3)c12 [Compound 48]	10 to 999 nM
Cc1cc(=O)oc2c1ccc1oc(C(=O)c3ccc4ccccc4c3)c(-c3ccccc3)c12 [Compound 54]	10 to 999 nM
Cc1cc(=O)oc2c1ccc1oc(C(=O)c3ccc(F)cc3F)c(-c3ccccc3)c12 [Compound 59]	10 to 999 nM
Cc1cc(=O)oc2c1ccc1oc(C(=O)c3ccc(F)c(F)c3)c(-c3ccccc3)c12 [Compound 60]	10 to 999 nM
Cc1cc(=O)oc2c1ccc1oc(C(=O)c3cc(F)ccc3F)c(-c3ccccc3)c12 [Compound 61]	10 to 999 nM
CCOc1cccc(C(=O)c2oc3ccc4c(C)cc(=O)oc4c3c2-c2ccccc2)c1 [Compound 68]	10 to 999 nM
CCCOc1cccc(C(=O)c2oc3ccc4c(C)cc(=O)oc4c3c2-c2ccccc2)c1 [Compound 69]	10 to 999 nM
CCCCOc1cccc(C(=O)c2oc3ccc4c(C)cc(=O)oc4c3c2-c2ccccc2)c1 [Compound 70]	10 to 999 nM

Structure (SMILES)	IC50
CCCCCOc1cccc(C(=O)c2oc3ccc4c(C)cc(=O)oc4c3c2-c2ccccc2)c1 [Compound 71]	10 to 999 nM
CCCCCCOc1cccc(C(=O)c2oc3ccc4c(C)cc(=O)oc4c3c2-c2ccccc2)c1 [Compound 72]	10 to 999 nM
Cc1cc(=O)oc2c1ccc1oc(C(=O)c3cccc(OCCCCl)c3)c(-c3ccccc3)c12 [Compound 74]	10 to 999 nM
Cc1cc(=O)oc2c1ccc1oc(C(=O)c3cccc(OCCCCCl)c3)c(-c3ccccc3)c12 [Compound 75]	10 to 999 nM
C=CCOc1cccc(C(=O)c2oc3ccc4c(C)cc(=O)oc4c3c2-c2ccccc2)c1 [Compound 76]	10 to 999 nM
C=CCCOc1cccc(C(=O)c2oc3ccc4c(C)cc(=O)oc4c3c2-c2ccccc2)c1 [Compound 77]	10 to 999 nM
C=CCCCOc1cccc(C(=O)c2oc3ccc4c(C)cc(=O)oc4c3c2-c2ccccc2)c1 [Compound 78]	10 to 999 nM
C=CCCCCOc1cccc(C(=O)c2oc3ccc4c(C)cc(=O)oc4c3c2-c2ccccc2)c1 [Compound 79]	10 to 999 nM
Cc1cc(=O)oc2c1ccc1oc(C(=O)c3ccco3)c(-c3ccccc3)c12 [Compound 92]	10 to 999 nM
Cc1cc(=O)oc2c1ccc1oc(C(=O)c3ccsc3)c(-c3ccccc3)c12 [Compound 96]	10 to 999 nM
Cc1cc(=O)oc2c1ccc1oc(C(=O)c3ccc(Br)s3)c(-c3ccccc3)c12 [Compound 98]	10 to 999 nM
Cc1ccsc1C(=O)c1oc2ccc3c(C)cc(=O)oc3c2c1-c1ccccc1 [Compound 100]	10 to 999 nM
Cc1cc(=O)oc2c1ccc1oc(C(=O)c3nccs3)c(-c3ccccc3)c12 [Compound 107]	10 to 999 nM
Cc1cc(=O)oc2c1ccc1oc(C(=O)c3ccccn3)c(-c3ccccc3)c12 [Compound 115]	10 to 999 nM
Cc1cc(=O)oc2c1ccc1oc(C(=O)c3ccccc3)c(-c3ccccc3F)c12 [Compound 132]	10 to 999 nM
Cc1cc(=O)oc2c1ccc1oc(C(=O)c3ccccc3)c(-c3ccccc3Cl)c12 [Compound 135]	10 to 999 nM
Cc1cc(=O)oc2c1ccc1oc(C(=O)c3ccccc3)c(-c3ccc(Cl)cc3)c12 [Compound 137]	10 to 999 nM
Cc1cc(=O)oc2c1ccc1oc(C(=O)c3ccccc3)c(-c3ccccc3Br)c12 [Compound 138]	10 to 999 nM
Cc1cc(=O)oc2c1ccc1oc(C(=O)c3ccccc3)c(-c3cccc(Br)c3)c12 [Compound 139]	10 to 999 nM
Cc1ccc(-c2c(C(=O)c3ccccc3)oc3ccc4c(C)cc(=O)oc4c23)cc1 [Compound 142]	10 to 999 nM
Cc1cc(=O)oc2c1ccc1oc(C(=O)c3ccccc3)c(-c3cccc(C#N)c3)c12 [Compound 143]	10 to 999 nM
Cc1cc(=O)oc2c1ccc1oc(C(=O)c3ccccc3)c(-c3cccc([N+](=O)[O-])c3)c12 [Compound 144]	10 to 999 nM

same assay, conditions: MDCK cells, 72 h, ranges given, read-out: IC50 (concentration reducing virus-induced cytopathic effect by 50%)

Structure (SMILES)	IC50
O=C(c1ccccc1)c1oc2ccc3ccc(=O)oc3c2c1-c1ccccc1 [Compound 2]	6000 to 25000 nM
Cc1cc2ccc3oc(C(=O)c4ccccc4)c(-c4ccccc4)c3c2oc1=O [Compound 3]	1000 to 5900 nM
Cc1cc2oc(C(=O)c3ccccc3)c(-c3ccccc3)c2c2oc(=O)ccc12 [Compound 4]	6000 to 25000 nM
O=Cc1cc(=O)oc2c1ccc1oc(C(=O)c3ccccc3)c(-c3ccccc3)c12 [Compound 10]	1000 to 5900 nM
Cc1cc(=O)oc2c1cc(CC1CO1)c1oc(C(=O)c3ccccc3)c(-c3ccccc3)c12 (centres unmarked) [Compound 18]	1000 to 5900 nM
O=C(c1ccccc1)c1oc2ccc3c4ccccc4c(=O)oc3c2c1-c1ccccc1 [Compound 22]	6000 to 25000 nM
COc1ccc(C(=O)c2oc3ccc4c(C)cc(=O)oc4c3c2-c2ccccc2)cc1 [Compound 32]	1000 to 5900 nM
Cc1cc(=O)oc2c1ccc1oc(C(=O)c3ccc(O)cc3)c(-c3ccccc3)c12 [Compound 34]	1000 to 5900 nM
Cc1ccccc1C(=O)c1oc2ccc3c(C)cc(=O)oc3c2c1-c1ccccc1 [Compound 39]	6000 to 25000 nM
Cc1cc(=O)oc2c1ccc1oc(C(=O)c3cccc(C#N)c3)c(-c3ccccc3)c12 [Compound 42]	1000 to 5900 nM
Cc1cc(=O)oc2c1ccc1oc(C(=O)c3ccc(Cl)cc3)c(-c3ccccc3)c12 [Compound 49]	6000 to 25000 nM
Cc1cc(=O)oc2c1ccc1oc(C(=O)c3ccc([N+](=O)[O-])cc3)c(-c3ccccc3)c12 [Compound 51]	6000 to 25000 nM
COc1ccc(C(=O)c2oc3ccc4c(C)cc(=O)oc4c3c2-c2ccccc2)c(OC)c1 [Compound 56]	6000 to 25000 nM
Cc1cc(=O)oc2c1ccc1oc(C(=O)c3ccc(Cl)c(Cl)c3)c(-c3ccccc3)c12 [Compound 58]	1000 to 5900 nM
Cc1cc(=O)oc2c1ccc1oc(C(=O)c3cccc([N+](=O)[O-])c3)c(-c3ccccc3)c12 [Compound 66]	1000 to 5900 nM
Cc1cc(=O)oc2c1ccc1oc(C(=O)c3cccc(N)c3)c(-c3ccccc3)c12 [Compound 67]	1000 to 5900 nM
Cc1cc(=O)oc2c1ccc1oc(C(=O)c3cccc(OCCCl)c3)c(-c3ccccc3)c12 [Compound 73]	1000 to 5900 nM
Cc1cc(=O)oc2c1ccc1oc(C(=O)c3cccc(OCCN4CCOCC4)c3)c(-c3ccccc3)c12 [Compound 80]	1000 to 5900 nM
Cc1cc(=O)oc2c1ccc1oc(C(=O)c3cccc(OCCCN4CCOCC4)c3)c(-c3ccccc3)c12 [Compound 81]	1000 to 5900 nM
Cc1cc(=O)oc2c1ccc1oc(C(=O)c3cccc(OCCCCN4CCOCC4)c3)c(-c3ccccc3)c12 [Compound 82]	1000 to 5900 nM
Cc1cc(=O)oc2c1ccc1oc(C(=O)c3cccc(OCCCN4CCCCC4)c3)c(-c3ccccc3)c12 [Compound 84]	6000 to 25000 nM
Cc1cc(=O)oc2c1ccc1oc(C(=O)c3cccc(OCCN(C)C)c3)c(-c3ccccc3)c12 [Compound 86]	6000 to 25000 nM
Cc1cc(=O)oc2c1ccc1oc(C(=O)c3cccc(OCCCN(C)C)c3)c(-c3ccccc3)c12 [Compound 87]	6000 to 25000 nM
Cc1ccc(C(=O)c2oc3ccc4c(C)cc(=O)oc4c3c2-c2ccccc2)o1 [Compound 94]	6000 to 25000 nM
Cc1cc(=O)oc2c1ccc1oc(C(=O)c3cc(Cl)sc3Cl)c(-c3ccccc3)c12 [Compound 97]	1000 to 5900 nM
Cc1cc(=O)oc2c1ccc1oc(C(=O)c3ccccc3)c(-c3cccc(F)c3)c12 [Compound 133]	1000 to 5900 nM
Cc1cc(=O)oc2c1ccc1oc(C(=O)c3ccccc3)c(-c3cccc(Cl)c3)c12 [Compound 136]	1000 to 5900 nM
